Measurements taken from patent US8129417B2, “Substituted octahydrocyclopenta[C]pyrrol-4-amines as calcium channel blockers” (Abbott Laboratories, priority 2008, dated 2012).

Target: human Cav2.2 (Homo sapiens, UniProt Q00975)
Assay: Assessment of calcium channel activity using FLIPR (Ca2+ influx in IMR32 cells)
Format: cell-based
Conditions: for IC50: 2 μM nifedipine, depolarized with 80 mM KCl
How it was run: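 IMR32 neuroblastoma cells seeded at 1-1.2×10^5 cells/well and grown 48 h at 37 °C before FLIPR Ca2+ influx read. Percent inhibition at each concentration vs no-inhibitor activity; IC50 by non-linear sigmoidal dose-response fit.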

[1] = 60 minute pre-incubation with compound
[2] = 3 minute pre-incubation with compound (*)

human Cav2.2, sequence (Q00975 whole entry): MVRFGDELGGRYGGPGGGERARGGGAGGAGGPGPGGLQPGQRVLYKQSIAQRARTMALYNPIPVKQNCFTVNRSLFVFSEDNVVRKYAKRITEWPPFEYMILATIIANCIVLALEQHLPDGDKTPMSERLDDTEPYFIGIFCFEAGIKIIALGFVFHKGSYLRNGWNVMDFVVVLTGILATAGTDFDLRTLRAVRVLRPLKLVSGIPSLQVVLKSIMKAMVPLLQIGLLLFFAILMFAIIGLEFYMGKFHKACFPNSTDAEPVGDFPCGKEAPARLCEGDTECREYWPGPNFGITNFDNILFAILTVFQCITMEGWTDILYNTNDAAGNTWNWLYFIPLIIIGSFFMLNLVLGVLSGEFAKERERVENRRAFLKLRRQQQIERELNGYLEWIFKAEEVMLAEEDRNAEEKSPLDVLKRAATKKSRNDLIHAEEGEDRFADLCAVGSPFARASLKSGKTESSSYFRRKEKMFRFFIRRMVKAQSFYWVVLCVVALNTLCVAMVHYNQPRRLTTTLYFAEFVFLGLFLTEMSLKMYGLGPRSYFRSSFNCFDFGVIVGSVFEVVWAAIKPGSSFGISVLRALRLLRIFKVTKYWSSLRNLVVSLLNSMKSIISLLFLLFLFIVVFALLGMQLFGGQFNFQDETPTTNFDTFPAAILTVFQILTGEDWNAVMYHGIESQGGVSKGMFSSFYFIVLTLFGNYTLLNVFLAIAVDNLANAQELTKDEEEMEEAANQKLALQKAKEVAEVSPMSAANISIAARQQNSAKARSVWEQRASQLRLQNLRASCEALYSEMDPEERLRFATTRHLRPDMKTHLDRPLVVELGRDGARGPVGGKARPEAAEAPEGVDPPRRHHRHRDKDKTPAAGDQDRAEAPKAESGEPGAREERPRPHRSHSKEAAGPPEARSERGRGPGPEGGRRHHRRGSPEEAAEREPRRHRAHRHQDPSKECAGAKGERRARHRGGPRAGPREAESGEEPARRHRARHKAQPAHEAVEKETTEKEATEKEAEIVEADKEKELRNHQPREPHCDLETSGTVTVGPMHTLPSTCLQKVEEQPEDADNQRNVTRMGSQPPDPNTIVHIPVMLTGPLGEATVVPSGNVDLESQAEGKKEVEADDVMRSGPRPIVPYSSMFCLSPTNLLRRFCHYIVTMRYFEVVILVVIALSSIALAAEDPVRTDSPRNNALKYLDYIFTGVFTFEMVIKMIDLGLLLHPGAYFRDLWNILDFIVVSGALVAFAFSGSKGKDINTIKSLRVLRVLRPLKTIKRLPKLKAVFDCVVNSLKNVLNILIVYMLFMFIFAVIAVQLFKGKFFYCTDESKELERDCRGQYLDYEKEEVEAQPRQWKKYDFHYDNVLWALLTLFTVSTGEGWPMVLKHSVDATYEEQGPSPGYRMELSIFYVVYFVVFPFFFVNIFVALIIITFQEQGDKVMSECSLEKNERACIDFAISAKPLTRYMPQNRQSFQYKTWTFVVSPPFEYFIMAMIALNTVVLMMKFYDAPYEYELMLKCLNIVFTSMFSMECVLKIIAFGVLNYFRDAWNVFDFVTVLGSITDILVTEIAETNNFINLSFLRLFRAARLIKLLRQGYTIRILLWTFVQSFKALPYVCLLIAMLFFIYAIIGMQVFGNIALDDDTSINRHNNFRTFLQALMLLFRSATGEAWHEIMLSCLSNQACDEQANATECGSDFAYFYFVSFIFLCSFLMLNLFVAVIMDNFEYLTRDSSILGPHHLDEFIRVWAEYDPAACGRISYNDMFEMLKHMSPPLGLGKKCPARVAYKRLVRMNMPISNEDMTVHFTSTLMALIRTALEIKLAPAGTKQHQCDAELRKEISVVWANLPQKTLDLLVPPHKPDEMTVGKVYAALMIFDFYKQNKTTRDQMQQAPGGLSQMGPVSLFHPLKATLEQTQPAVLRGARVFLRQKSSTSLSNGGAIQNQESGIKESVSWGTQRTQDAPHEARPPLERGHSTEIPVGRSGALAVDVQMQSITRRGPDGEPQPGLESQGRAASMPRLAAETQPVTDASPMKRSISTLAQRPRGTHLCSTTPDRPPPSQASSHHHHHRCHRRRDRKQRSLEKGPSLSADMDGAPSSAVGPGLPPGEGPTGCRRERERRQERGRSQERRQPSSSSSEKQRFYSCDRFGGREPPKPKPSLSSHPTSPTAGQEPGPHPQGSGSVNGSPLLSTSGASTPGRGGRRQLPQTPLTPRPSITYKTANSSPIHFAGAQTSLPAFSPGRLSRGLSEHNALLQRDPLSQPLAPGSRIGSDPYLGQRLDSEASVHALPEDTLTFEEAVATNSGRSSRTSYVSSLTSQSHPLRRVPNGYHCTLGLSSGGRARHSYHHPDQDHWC
human Cav2.2, sequence (P54289 25-946 partner limits assumed): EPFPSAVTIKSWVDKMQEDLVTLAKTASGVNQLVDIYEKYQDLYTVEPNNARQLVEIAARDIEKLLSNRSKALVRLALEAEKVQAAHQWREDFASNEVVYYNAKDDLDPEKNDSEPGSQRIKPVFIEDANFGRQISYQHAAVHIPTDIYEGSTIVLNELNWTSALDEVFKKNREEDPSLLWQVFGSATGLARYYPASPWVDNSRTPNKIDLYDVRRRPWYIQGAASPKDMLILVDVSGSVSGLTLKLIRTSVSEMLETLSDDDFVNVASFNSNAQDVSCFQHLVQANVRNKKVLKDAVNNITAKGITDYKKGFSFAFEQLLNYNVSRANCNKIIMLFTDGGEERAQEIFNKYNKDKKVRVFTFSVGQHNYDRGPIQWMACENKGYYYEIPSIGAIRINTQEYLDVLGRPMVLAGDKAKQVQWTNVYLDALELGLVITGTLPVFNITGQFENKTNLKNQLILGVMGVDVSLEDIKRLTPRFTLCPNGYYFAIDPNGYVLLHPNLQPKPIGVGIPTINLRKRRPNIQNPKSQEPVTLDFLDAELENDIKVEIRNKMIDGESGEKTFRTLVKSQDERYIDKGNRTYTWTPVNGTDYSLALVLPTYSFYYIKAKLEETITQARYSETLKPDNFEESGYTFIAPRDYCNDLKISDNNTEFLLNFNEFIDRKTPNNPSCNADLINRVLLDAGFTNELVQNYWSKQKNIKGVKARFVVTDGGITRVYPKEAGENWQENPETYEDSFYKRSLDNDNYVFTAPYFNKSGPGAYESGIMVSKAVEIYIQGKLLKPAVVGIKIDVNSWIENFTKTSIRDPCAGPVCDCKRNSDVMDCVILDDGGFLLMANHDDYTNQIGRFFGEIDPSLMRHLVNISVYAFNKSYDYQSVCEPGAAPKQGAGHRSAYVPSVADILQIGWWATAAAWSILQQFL
human Cav2.2, sequence (P54289 947-1103 partner limits assumed): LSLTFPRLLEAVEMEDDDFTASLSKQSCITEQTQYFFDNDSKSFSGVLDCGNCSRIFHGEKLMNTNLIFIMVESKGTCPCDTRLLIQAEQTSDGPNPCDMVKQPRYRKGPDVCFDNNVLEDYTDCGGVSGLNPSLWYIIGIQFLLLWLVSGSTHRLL
human Cav2.2, sequence (P54284 whole entry partner): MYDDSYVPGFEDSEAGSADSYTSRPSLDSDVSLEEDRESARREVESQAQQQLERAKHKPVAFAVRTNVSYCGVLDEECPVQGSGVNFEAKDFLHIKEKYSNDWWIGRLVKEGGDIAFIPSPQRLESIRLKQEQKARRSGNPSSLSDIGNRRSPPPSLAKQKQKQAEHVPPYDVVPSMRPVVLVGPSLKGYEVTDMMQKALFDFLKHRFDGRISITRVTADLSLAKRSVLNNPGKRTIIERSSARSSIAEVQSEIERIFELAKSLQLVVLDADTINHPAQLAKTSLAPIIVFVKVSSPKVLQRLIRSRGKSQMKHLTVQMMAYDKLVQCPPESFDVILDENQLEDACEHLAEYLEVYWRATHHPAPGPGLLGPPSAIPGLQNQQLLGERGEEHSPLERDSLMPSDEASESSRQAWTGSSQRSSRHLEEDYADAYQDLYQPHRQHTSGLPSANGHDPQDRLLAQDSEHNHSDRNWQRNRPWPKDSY

| IC50 [1] [µM] | Structure (SMILES) | further results |
| --- | --- | --- |
| 0.9 | CCC[C@@H](C(=O)N[C@@H]1CC[C@H]2CN(Cc3ccc(C(F)(F)F)cc3)C[C@H]21)N(C)C(=O)OC(C)(C)C [Example 317, tert-butyl methyl((S)-1-oxo-1-((3aS,4R,6aR)-2-(4-(trifluoromethyl)benzyl)octahydrocyclopenta[c]pyrrol-4-ylamino)pentan-2-yl)carbamate] | – |
| 1.62 | CN[C@@H](CC(C)C)C(=O)N1C[C@H]2CC[C@H](NC(=O)C(c3ccc(F)cc3)c3ccc(F)cc3)[C@H]2C1 [Example 459, 2,2-bis(4-fluorophenyl)-N-[(3aR,4S,6aS)-2-(N-methyl-L-leucyl)octahydrocyclopenta[c]pyrrol-4-yl]acetamide] | – |
| 9 | CN[C@@H](CC(C)(C)C)C(=O)N[C@@H]1CC[C@H]2CN(Cc3ccccc3)C[C@H]21 [Example 358, N^1-[(3aS,4R,6aR)-2-benzyloctahydrocyclopenta[c]pyrrol-4-yl]-N^2,4-dimethyl-L-leucinamide] | – |
| 1.68 | CNC(CC(C)C)C(=O)N1CC2CCC(N(C3CC3)S(=O)(=O)c3cccc(C(F)(F)F)c3)C2C1 [Example 559, N-cyclopropyl-N-[(3aS*,4S*,6aR*)-[2-(N-methyl-L-leucyl)octahydrocyclopenta[c]pyrrol-4-yl]-3-(trifluoromethyl)benzenesulfonamide] | – |
| 4.64 | CC[C@H](C)[C@@H](C(=O)N[C@H]1CC[C@@H]2CN(Cc3ccccc3)C[C@@H]21)N(C)C(=O)OC(C)(C)C [Example 224, tert-butyl(2S,3S)-1-((3aR,4S,6aS)-2-benzyloctahydrocyclopenta[c]pyrrol-4-ylamino)-3-methyl-1-oxopentan-2-yl(methyl)carbamate] | – |
| 0.38 | CC(C)(C)C[C@H](NC(=O)OC(C)(C)C)C(=O)N[C@H]1CC[C@@H]2CN(S(=O)(=O)c3cccc(C(F)(F)F)c3)C[C@@H]21 [Example 276, tert-butyl(S)-4,4-dimethyl-1-oxo-1-((3aR,4S,6aS)-2-(3-(trifluoromethyl)phenylsulfonyl)octahydrocyclopenta[c]pyrrol-4-ylamino)pentan-2-ylcarbamate] | – |
| 2.28 | CCC[C@H](NC(C)C)C(=O)N[C@H]1CC[C@@H]2CN(S(=O)(=O)c3ccc(C(F)(F)F)cc3)C[C@@H]21 [Example 481, N^2-isopropyl-N^1-((3aR,4S,6aS)-2-{[4-(trifluoromethyl)phenyl]sulfonyl}octahydrocyclopenta[c]pyrrol-4-yl)-L-norvalinamide] | – |
| 40.4 | c1ccc(CN2C[C@@H]3CC[C@H](NC4CC4)[C@@H]3C2)cc1 (relative stereo) [Example 198, (3aS*,4S*,6aR*)-2-benzyl-N-cyclopropyloctahydrocyclopenta[c]pyrrol-4-amine] | – |
| 0.53 | CC(C)C[C@H](NC(C)C)C(=O)N[C@H]1CC[C@@H]2CN(S(=O)(=O)c3cccc(C(F)(F)F)c3)C[C@@H]21 [Example 496, N^2-isopropyl-N^1-((3aR,4S,6aS)-2-{[3-(trifluoromethyl)phenyl]sulfonyl}octahydrocyclopenta[c]pyrrol-4-yl)-L-leucinamide] | – |
| – | O=C(N[C@H]1CC[C@@H]2CN(Cc3ccccc3)C[C@@H]21)C(Cc1ccccc1)c1ccccc1 (stereo partly drawn) [Example 50, N-[(3aR,4S,6aS)-2-benzyloctahydrocyclopenta[c]pyrrol-4-yl]-2,3-diphenylpropanamide] | IC50 [2]: 5 µM |
| 0.25 | CC(C)C[C@@H](C(=O)N[C@@H]1CC[C@H]2CN(S(=O)(=O)c3cccc(C(F)(F)F)c3)C[C@H]21)N(C)C(=O)OC(C)(C)C [Example 325, tert-butyl methyl((S)-4-methyl-1-oxo-1-((3aS,4R,6aR)-2-(3-(trifluoromethyl)phenylsulfonyl)octahydrocyclopenta[c]pyrrol-4-ylamino)pentan-2-yl)carbamate] | – |
| 0.75 | CCC[C@@H](C(=O)N[C@@H]1CC[C@H]2CN(S(=O)(=O)c3ccc(C(F)(F)F)cc3)C[C@H]21)N(C)C(=O)OC(C)(C)C [Example 331, tert-butyl methyl((S)-1-oxo-1-((3aS,4R,6aR)-2-(4-(trifluoromethyl)phenylsulfonyl)octahydrocyclopenta[c]pyrrol-4-ylamino)pentan-2-yl)carbamate] | – |
| 2.9 | O=C(N[C@H]1CC[C@H]2CN(Cc3cccc(C(F)(F)F)c3)C[C@H]21)C1CCCC1 (relative stereo) [Example 129, N-{(3aS*,4S*,6aR*)-2-[3-(trifluoromethyl)benzyl]octahydrocyclopenta[c]pyrrol-4-yl}cyclopentanecarboxamide] | – |
| 7.23 | CCC[C@H](NC(=O)C(C)(C)C)C(=O)N[C@H]1CC[C@@H]2CN(Cc3ccc(C(F)(F)F)cc3)C[C@@H]21 [Example 528, N^2-(2,2-dimethylpropanoyl)-N^1-{(3aR,4S,6aS)-2-[4-(trifluoromethyl)benzyl]octahydrocyclopenta[c]pyrrol-4-yl}-L-norvalinamide] | – |
| 0.98 | CCC[C@H](NC)C(=O)N[C@H]1CC[C@@H]2CN(S(=O)(=O)c3cccc(C(F)(F)F)c3)C[C@@H]21 [Example 394, N^2-methyl-N^1-((3aR,4S,6aS)-2-{[3-(trifluoromethyl)phenyl]sulfonyl}octahydrocyclopenta[c]pyrrol-4-yl)-L-norvalinamide] | – |
| 0.82 | CCCC[C@H](NC)C(=O)N[C@H]1CC[C@@H]2CN(S(=O)(=O)c3ccc(C(F)(F)F)cc3)C[C@@H]21 [Example 418, N^2-methyl-N^1-((3aR,4S,6aS)-2-{[4-(trifluoromethyl)phenyl]sulfonyl}octahydrocyclopenta[c]pyrrol-4-yl)-L-norleucinamide] | – |
| 1.38 | CC(C)(C)OC(=O)N1CCCC[C@H]1C(=O)N[C@H]1CC[C@@H]2CN(S(=O)(=O)c3cccc(C(F)(F)F)c3)C[C@@H]21 [Example 274, tert-butyl(2S)-2-{[((3aR,4S,6aS)-2-{[3-(trifluoromethyl)phenyl]sulfonyl}octahydrocyclopenta[c]pyrrol-4-yl)amino]carbonyl}piperidine-1-carboxylate] | – |
| 2.12 | CN[C@@H](CC(C)C)C(=O)N[C@H]1CC[C@@H]2CN(S(=O)(=O)c3ccc(C(F)(F)F)cc3)C[C@@H]21 [Example 395, N^2-methyl-N^1-((3aR,4S,6aS)-2-{[4-(trifluoromethyl)phenyl]sulfonyl}octahydrocyclopenta[c]pyrrol-4-yl)-L-leucinamide] | – |
| 1.21 | CC(C)C[C@@H](C(=O)N[C@@H]1CC[C@H]2CN(S(=O)(=O)c3cccc(C(F)(F)F)c3)C[C@H]21)N1CCOCC1 [Example 319, (2S)-4-methyl-2-morpholin-4-yl-N-((3aS,4R,6aR)-2-{[3-(trifluoromethyl)phenyl]sulfonyl}octahydrocyclopenta[c]pyrrol-4-yl)pentanamide] | – |
| 0.96 | CC(C)(C)C[C@H](N)C(=O)N[C@H]1CC[C@@H]2CN(S(=O)(=O)c3ccc(C(F)(F)F)cc3Cl)C[C@@H]21 [Example 429, N^1-((3aR,4S,6aS)-2-{[2-chloro-4-(trifluoromethyl)phenyl]sulfonyl}octahydrocyclopenta[c]pyrrol-4-yl)-4-methyl-L-leucinamide] | – |
| 1.46 | CC(C)C[C@@H](C(=O)N[C@@H]1CC[C@H]2CN(S(=O)(=O)c3ccc(F)cc3)C[C@H]21)N(C)C(=O)OC(C)(C)C [Example 326, tert-butyl(S)-1-((3aS,4R,6aR)-2-(4-fluorophenylsulfonyl)octahydrocyclopenta[c]pyrrol-4-ylamino)-4-methyl-1-oxopentan-2-yl(methyl)carbamate] | – |
| 0.4 | O=C(N[C@@H]1CC[C@H]2CN(CCCCCC(c3ccc(F)cc3)c3ccc(F)cc3)C[C@H]21)C(C1CCCCC1)C1CCCCC1 [Example 78, N-{(3aS,4R,6aR)-2-[6,6-bis(4-fluorophenyl)hexyl]octahydrocyclopenta[c]pyrrol-4-yl}-2,2-dicyclohexylacetamide] | – |
| 0.97 | CCC[C@H](NC(C)C)C(=O)N[C@@H]1CC[C@H]2CN(S(=O)(=O)c3cccc(C(F)(F)F)c3)C[C@H]21 [Example 484, N^2-isopropyl-N^1-((3aS,4R,6aR)-2-{[3-(trifluoromethyl)phenyl]sulfonyl}octahydrocyclopenta[c]pyrrol-4-yl)-L-norvalinamide] | – |
| – | CC(C)C(C(=O)N[C@H]1CC[C@@H]2CN(Cc3ccncc3)C[C@@H]21)c1ccccc1 (stereo partly drawn) [Example 103, 3-methyl-2-phenyl-N-[(3aR,4S,6aS)-2-(pyridin-4-ylmethyl)octahydrocyclopenta[c]pyrrol-4-yl]butanamide] | IC50 [2]: 31 µM |
| 8.69 | CC(C)N[C@H]1CC[C@@H]2CN(S(=O)(=O)c3ccc(C(F)(F)F)cc3)C[C@@H]21 [Example 283, (3aR,4S,6aS)—N-isopropyl-2-{[4-(trifluoromethyl)phenyl]sulfonyl}octahydrocyclopenta[c]pyrrol-4-amine] | – |
| > 100 | O=C(N[C@H]1CC[C@H]2CN(S(=O)(=O)Cc3cccc(C(F)(F)F)c3)C[C@H]21)C(C1CCCCC1)C1CCCCC1 [Example 208, 2,2-dicyclohexyl-N-((3aS,4S,6aR)-2-{[3-(trifluoromethyl)benzyl]sulfonyl}octahydrocyclopenta[c]pyrrol-4-yl)acetamide] | – |
| 1.02 | CCC[C@H](NC)C(=O)N[C@@H]1CC[C@H]2CN(S(=O)(=O)c3ccc(C(F)(F)F)cc3)C[C@H]21 [Example 404, N^2-methyl-N^1-((3aS,4R,6aR)-2-{[4-(trifluoromethyl)phenyl]sulfonyl}octahydrocyclopenta[c]pyrrol-4-yl)-L-norvalinamide] | – |
| 2.11 | CN[C@@H](CC(C)C)C(=O)N[C@@H]1CC[C@H]2CN(S(=O)(=O)c3ccc(F)cc3)C[C@H]21 [Example 444, N^1-{(3aS,4R,6aR)-2-[(4-fluorophenyl)sulfonyl]octahydrocyclopenta[c]pyrrol-4-yl}-N^2-methyl-L-leucinamide] | – |
| – | O=C(N[C@H]1CC[C@@H]2CN(Cc3ccccc3)C[C@@H]21)C(c1ccccc1)C1CC1 (stereo partly drawn) [Example 41, N-[(3aR,4S,6aS)-2-benzyloctahydrocyclopenta[c]pyrrol-4-yl]-2-cyclopropyl-2-phenylacetamide] | inhibition at 10 µM (IMR-32, @ 10 μM, 3 minute pre-incubation (*), read-out: percent inhibition): 56% |
